In patent US20240092744A1, “TRICYCLIC COMPOUND, AND PREPARATION METHOD THEREFOR AND MEDICAL USE THEREOF” (THE NATIONAL INSTITUTES OF PHARMACEUTICAL R&D CO., LTD., priority 2020, published 2024):

Assay: Determination of aldehyde capture rate (nonenal as model aldehyde, HPLC quantification)
Details: for Aldehyde consumption (100%): 0.05 mM compound, 0.025 mM nonenal, room temperature; for Capture rate (slope of the capture curve per unit time): higher absolute value of the slope = higher capture rate
Protocol: In the aldehyde capture test disclosed in the present invention, the stable lipid metabolite, nonenal, was used as the model aldehyde to react with the compound of the Example. The specific protocol was as follows.
0.05 mM of the compounds of the Examples of the present invention were precisely weighed respectively and dissolved in 1.2 mL of a mixed solution (v/v=1:1) of triolein (Aladdin, G105172-5g) and linoleic acid (Aladdin, L100442-25g), respectively. 2.5 mL of PBS (Solarbio, P1020) solution containing 20% Captisol® (Aladdin, Cl25030-25 g) was added, and the solution was stirred at room temperature overnight. After the example compound was completely dissolved, 0.025 mM nonenal (Sigma, 255653-5G) was added, and the solution was stirred vigorously at room temperature. […] The solution was mixed vigorously by vortex for 2 minutes, and centrifuged at a low speed of 1000 r/min for 3 minutes. The supernatant was transferred to an injection vial. The nonenal in the reaction mixture was analyzed quantitatively by high performance liquid chromatography. The adduct resulted from the example compound of the present invention and nonenal was analyzed qualitatively by high performance liquid chromatography-mass spectrometry.
Liquid Chromatograph: Waters I Class;
Column: ACQUITY UPLC HSS T3 1.8 μm;
Column temperature: 40° C.;
Liquid chromatography condition: mobile phase A: acetonitrile containing 0.1% formic acid; B: water containing 0.1% formic acid;
Injection volume: 0.5 mL.
Gradient of the mobile phases: […]
In the developed detection method, the retention time of the model aldehyde nonenal was 2.42 minutes. • Mass spectrometry conditions: • Mass spectrometer: Waters TQ-S micro • Ion source: ESI^+ • Capillary voltage: 0.5 kV • Cone voltage: 10V • Source temperature: 150° C. • Degassing temperature: 500° C., degassing flow: 1000 L/Hr • SIM mode • m/z: 225.24 [(mExample 1−OH)+H]^+, 365.42 [madduct 1+H]^+
The time-varying diagram of the capture reaction of the compounds of the examples of the present invention to nonenal is shown in FIG. 1.

| SMILES | Aldehyde consumption (100%) (135 minutes) | Capture rate (slope of the capture curve per unit time) (135 minutes) | Aldehyde consumption (100%) (180 minutes) | Capture rate (slope of the capture curve per unit time) (180 minutes) |
| --- | --- | --- | --- | --- |
| CC(C)(O)c1nc2oc3ccccc3c2cc1N [Example 1, 2-(3-Aminobenzofuro[2,3-b]pyridin-2-yl)propan-2-ol] | 24.57% | −0.13 | 34.69% | −0.14 |
| Cn1c2ccccc2c2cc(N)c(C(C)(C)O)cc21 [Example 3, 2-(3-Amino-9-methyl-9H-carbazol-2-yl)propan-2-ol] | 0.11% | −0.01 | 1.38% | −0.02 |
| CN1c2ccccc2Oc2cc(C(C)(C)O)c(N)cc21 [Example 5, 2-(2-Amino-10-methyl-10H-phenoxazin-3-yl)propan-2-ol] | 15.06% | −0.14 | 19.05% | −0.10 |
| CN1c2ccccc2Oc2cc(N)c(C(C)(C)O)cc21 [Example 6, 2-(3-Amino-10-methyl-10H-phenoxazin-2-yl)propan-2-ol] | 5.40% | −0.08 | 11.94% | −0.07 |
| CC(C)(O)c1cc2oc3ccccc3c2cc1N [Example 8, 2-(2-Aminodibenzo[b,d]furan-3-yl)propan-2-ol] | 8.30% | −0.22 | 17.80% | −0.07 |
| CC(C)(O)c1nc2c(cc1N)Oc1ccccc1O2 [Example 9, 2-(3-Aminobenzo[5,6][1,4]dioxino[2,3-b]pyridin-2-yl)propan-2-ol] | 0.10% | −0.01 | 0.10% | −0.04 |
| CC(C)(O)c1nc2c(cc1N)oc1ccccc12 [Example 10, 2-(3-Aminobenzofuro[3,2-b]pyridin-2-yl)propan-2-ol] | 9.15% | −0.08 | 9.48% | −0.06 |
| Cn1c2ccccc2c2nc(C(C)(C)O)c(N)cc21 [Example 11, 2-(3-Amino-5-methyl-5H-pyrido[3,2-b]indol-2-yl)propan-2-ol] | 7.71% | −0.06 | 12.33% | −0.08 |
| Cn1c2cc(Cl)ccc2c2cc(N)c(C(C)(C)O)nc21 [Example 12, 2-(3-Amino-7-chloro-9-methyl-9H-pyrido[2,3-b]indol-2-yl)propan-2-ol] | 17.18% | −0.24 | 30.31% | −0.16 |
| Cn1c2ccc(Cl)cc2c2cc(N)c(C(C)(C)O)nc21 [Example 13, 2-(3-Amino-6-chloro-9-methyl-9H-pyrido[2,3-b]indol-2-yl)propan-2-ol] | 6.03% | −0.12 | 14.83% | −0.08 |
| CC(C)(O)c1cc2c(cc1N)C(C)(C)c1ccccc1-2 [Example 14, 2-(2-Amino-9,9-dimethyl-9H-fluoren-3-yl)propan-2-ol] | 36.30% | −0.19 | 44.51% | −0.28 |
| CC(C)(O)c1cc2c(cc1N)Oc1ncccc1O2 [Example 15, 2-(8-Aminobenzo[5,6][1,4]dioxino[2,3-b]pyridin-7-yl)propan-2-ol] | 23.50% | −0.15 | 30.00% | −0.17 |
| CC(C)(O)c1cc2c(cc1N)Oc1cccnc1O2 [Example 19, 2-(7-Aminobenzo[5,6][1,4]dioxino[2,3-b]pyridin-8-yl)propan-2-ol] | 19.40% | −0.14 | 36.90% | −0.25 |
| CC(C)(O)c1cc2c(cc1N)Oc1cc(F)ccc1O2 [Example 20] | 23.91% | −0.18 | 25.45% | −0.14 |
| CC(C)(O)c1cc2c(cc1N)Oc1ccc(F)cc1O2 [Example 21] | 6.92% | −0.05 | 10.06% | −0.05 |
| CC(C)(O)c1cc2c(cc1N)Oc1nccnc1O2 [Example 23, 2-(8-Aminobenzo[5,6][1,4]dioxino[2,3-b]pyrazin-7-yl)propan-2-ol] | 16.24% | −0.12 | 17.89% | −0.11 |
| CC(C)(O)c1cc2c(cc1N)Oc1cc(Cl)ccc1O2 [Example 25] | 4.87% | −0.03 | 4.88% | −0.03 |
| CC(C)(O)c1cc2c(cc1N)Oc1ccc(Cl)cc1O2 [Example 26] | 2.02% | −0.02 | 5.34% | −0.03 |
| CC(C)(O)c1cc2c(cc1N)N(Cc1ccccc1)c1ccccc1O2 [Example 27, 2-(2-Amino-10-benzyl-10H-phenoxazin-3-yl)propan-2-ol] | 14.37% | −0.11 | 17.87% | −0.10 |
| COC1c2ccccc2-c2cc(C(C)(C)O)c(N)cc21 (stereo not drawn) [Example 28, 2-(2-Amino-9-methoxy-9H-fluoren-3-yl)propan-2-ol] | 3.77% | −0.02 | 4.37% | −0.03 |
| CC(C)(C)OC(=O)N1c2ccccc2Oc2cc(C(C)(C)O)c(N)cc21 [Example 29, tert-Butyl 2-amino-3-(2-hydroxypropan-2-yl)-10H-phenoxazine-10-carboxylate] | 6.52% | −0.04 | 6.53% | −0.04 |
